The first data set addresses T1, human TRPV1 (Homo sapiens, UniProt Q8NER1).
T1 construct: expressed in transfected cells; host or cells: CHO-K1 cells, pCAGGS vector, clones selected by limiting dilution
Description: Capsaicin-induced Ca influx in transformed CHO cells, FDSS-6000 (b-1), A2 value. The format is cell-based. Particulars: concentration shifting the capsaicin concentration-reaction curve two times rightward; CHO cells expressing TRPV1. The source says: (1) Measurement of Capsaicin-Induced Ca Influx in a Transformed CHO Cell Line Expressing Human TRPV1
(a) Establishment of a Transformed CHO Cell Line Expressing Human and Rat TRPV1
Human and rat vanilloid receptor 1 (hTRPV1 and rTRPV1) cDNA was cloned from human brain and rat dorsal root ganglion, respectively. The cloned TRPV1 cDNA was incorporated in a pCAGGS vector. The vector was introduced to a CHO-K1 cell line, thus performing transformation. Clones obtained by limiting dilution were stimulated with capsaicin. Clones with a high responsiveness were selected using an increase in the Ca concentration as an indicator. The selected clones were used for the following experiment.
(b-1) Measurement of Ca Influx using FDSS-6000
The transformed CHO cells expressing human or rat TRPV1 were seeded in a 96-well plate (with black walls and transparent bottoms, manufactured by Greiner) at a density of 40,000 cells per well. The cells were cultured at 37° C. in 5% CO2 atmosphere for one night. A loading solution of FLIPR Calcium 3 assay kit (manufactured by Molecular Devices Corporation) containing 2.5 mmol/L of probenecid was then added to each of the wells in the same amount as the culture medium, and the cells were cultured at 37° C. for 60 minutes. For three minutes after the cells were stimulated with capsaicin (1 nmol/L to 1 μmol/L), the change of the intracellular Ca concentration was measured using FDSS-6000 (λex: 480 nm, λem: […], manufactured by Hamamatsu Photonics K.K.). The integrated values of the increase rate of the intracellular Ca concentration were calculated for a group treated with the compounds of the present invention and a group treated with a vehicle, thus allowing capsaicin concentration-reaction curves to be obtained. A concentration (A2 value) of each of the compounds of the present invention, at which the capsaicin concentration-reaction curve obtained when the cells were treated with the vehicle was shifted two times rightward, was calculated. The inhibitory effects of the test compounds were compared using this value as an indicator.
T1 sequence (Q8NER1 whole entry): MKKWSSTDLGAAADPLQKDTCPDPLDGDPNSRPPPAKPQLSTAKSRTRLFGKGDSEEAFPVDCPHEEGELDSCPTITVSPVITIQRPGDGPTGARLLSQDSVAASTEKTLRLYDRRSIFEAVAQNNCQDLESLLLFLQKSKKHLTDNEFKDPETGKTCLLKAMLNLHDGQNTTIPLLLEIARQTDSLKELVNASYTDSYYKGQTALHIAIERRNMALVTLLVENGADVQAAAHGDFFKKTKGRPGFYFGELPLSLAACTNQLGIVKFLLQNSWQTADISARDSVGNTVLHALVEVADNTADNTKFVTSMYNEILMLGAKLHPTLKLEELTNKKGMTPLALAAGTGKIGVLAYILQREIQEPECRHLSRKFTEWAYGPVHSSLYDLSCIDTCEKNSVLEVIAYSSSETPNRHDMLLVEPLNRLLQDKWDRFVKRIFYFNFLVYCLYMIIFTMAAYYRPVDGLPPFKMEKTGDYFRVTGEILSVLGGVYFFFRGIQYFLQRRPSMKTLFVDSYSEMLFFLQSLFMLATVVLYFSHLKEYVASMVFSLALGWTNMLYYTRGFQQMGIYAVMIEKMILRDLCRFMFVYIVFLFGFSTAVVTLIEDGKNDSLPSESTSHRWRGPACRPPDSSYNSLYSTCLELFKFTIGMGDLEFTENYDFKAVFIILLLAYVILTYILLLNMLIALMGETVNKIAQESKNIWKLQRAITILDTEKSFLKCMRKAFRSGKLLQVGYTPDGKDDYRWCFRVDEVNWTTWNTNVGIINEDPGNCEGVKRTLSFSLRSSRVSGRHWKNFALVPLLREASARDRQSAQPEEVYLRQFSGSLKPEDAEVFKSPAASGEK
Regarding `CC1(CO)Nc2ccc(NC(=O)/C=C3\CCCOc4cc(C(F)(F)F)ccc43)cc2NC1=O` (centres unmarked) [EXAMPLE 40, (E)-2-(8-trifluoromethyl-3,4-dihydrobenzo[b]oxepin-5(2H)-ylidene)-N-(3-hydroxymethyl-3-methyl-3,4-dihydro-2(1H)-quinoxalinon-7-yl)acetamide], the A2 value entry is given as “A (A2 value of less than 100 nM)”.
Regarding `CN1c2ccc(NC(=O)/C=C3\CCCOc4cc(C(F)(F)F)ccc43)cc2NC(=O)C1(C)CO` (centres unmarked) [EXAMPLE 41, (E)-2-(8-trifluoromethyl-3,4-dihydrobenzo[b]oxepin-5(2H)-ylidene)-N-(3-hydroxymethyl-3,4-dimethyl-3,4-dihydro-2(1H)-quinoxalinon-7-yl)acetamide], the A2 value entry is “A (A2 value of less than 100 nM)”.
Take `COCCN(CCOC)C1Cc2ccc(NC(=O)/C=C3\CCCOc4cc(C(F)(F)F)ccc43)cc2NC1=O` (centres unmarked) [EXAMPLE 44]: the A2 value entry was “A (A2 value of less than 100 nM)”.
Same read-out and setting: for `COCCN(C)C1Cc2ccc(NC(=O)/C=C3\CCCOc4cc(C(F)(F)F)ccc43)cc2NC1=O` (centres unmarked) [EXAMPLE 45, (E)-2-(8-trifluoromethyl-3,4-dihydrobenzo[b]oxepin-5-(2H)-ylidene)-N-(3-(N-methyl-N-(2-methoxyethyl)amino)-3,4-dihydro-2(1H)-quinolinon-7-yl)acetamide] the value was “A (A2 value of less than 100 nM)”.
The same measure, in the same setting: for `O=C(/C=C1\CCCOc2cc(C(F)(F)F)ccc21)Nc1ccc2c(c1)NC(=O)C(N1CCCC1)C2` (centres unmarked) [EXAMPLE 46] the value was “A (A2 value of less than 100 nM)”; for `O=C(/C=C1\CCCOc2cc(C(F)(F)F)ccc21)Nc1ccc2c(c1)NC(=O)C(N1CC[C@@H](F)C1)C2` (stereo partly drawn) [EXAMPLE 47, (E)-2-(8-trifluoromethyl-3,4-dihydrobenzo[b]oxepin-5(2H)-ylidene)-N-(3-((3S)-fluoropyrrolidin-1-yl)-3,4-dihydro-2(1H)-quinolinon-7-yl)acetamide], “A (A2 value of less than 100 nM)”.
Still for that read-out and setting: with `O=C(/C=C1\CCCOc2cc(C(F)(F)F)ccc21)Nc1ccc2c(c1)NC(=O)C(N1CC[C@@H](O)C1)C2` (stereo partly drawn) [EXAMPLE 48, (E)-2-(8-trifluoromethyl-3,4-dihydrobenzo[b]oxepin-5(2H)-ylidene)-N-(3-((3S)-hydroxypyrrolidin-1-yl)-3,4-dihydro-2(1H)-quinolinon-7-yl)acetamide] the entry was “A (A2 value of less than 100 nM)”; with `O=C(/C=C1\CCCOc2cc(C(F)(F)F)ccc21)Nc1ccc2c(c1)NC(=O)C(N1CCNCC1)C2` (centres unmarked) [EXAMPLE 52, (E)-2-(8-trifluoromethyl-3,4-dihydrobenzo[b]oxepin-5(2H)-ylidene)-N-(3-(1-piperazinyl)-3,4-dihydro-2(1H)-quinolinon-7-yl)acetamide], “B (A2 value of 100 nM or more)”.
On to `O=C(/C=C1\CCCOc2cc(C(F)(F)F)ccc21)Nc1ccc2c(c1)NC(=O)C(N1CCCOCC1)C2` (centres unmarked) [EXAMPLE 53, (E)-2-(8-trifluoromethyl-3,4-dihydrobenzo[b]oxepin-5(2H)-ylidene)-N-(3-([1,4]oxazepan-4-yl)-3,4-dihydro-2(1H)-quinolinon-7-yl)acetamide], for which the A2 value result is on record as “A (A2 value of less than 100 nM)”.
Still for that read-out and setting: with `O=C(/C=C1\CCCOc2cc(C(F)(F)F)ccc21)Nc1ccc2c(c1)NC(=O)C(N1CCSCC1)C2` (centres unmarked) [EXAMPLE 54, (E)-2-(B-trifluoromethyl-3,4-dihydrobenzo[b]oxepin-5(2H)-ylidene)-N-(3-(4-thiomorpholinyl)-3,4-dihydro-2(1H)-quinolinon-7-yl)acetamide] the entry was “A (A2 value of less than 100 nM)”.
Still for that read-out and setting: with `COC1CCN(C2Cc3ccc(NC(=O)/C=C4\CCCOc5cc(C(F)(F)F)ccc54)cc3NC2=O)CC1` (centres unmarked) [EXAMPLE 55, (E)-2-(8-trifluoromethyl-3,4-dihydrobenzo[b]oxepin-5(2H)-ylidene)-N-(3-(4-methoxy-1-piperidinyl)-3,4-dihydro-2(1H)-quinolinon-7-yl)acetamide] the entry was “A (A2 value of less than 100 nM)”; with `CO[C@@H]1CCN(C2Cc3ccc(NC(=O)/C=C4\CCCOc5cc(C(F)(F)F)ccc54)cc3NC2=O)C1` (stereo partly drawn) [EXAMPLE 56, (E)-2-(8-trifluoromethyl-3,4-dihydrobenzo[b]oxepin-5(2H)-ylidene)-N-(3-((3S)-methoxypyrrolidin-1-yl)-3,4-dihydro-2(1H)-quinolinon-7-yl)acetamide], “A (A2 value of less than 100 nM)”; with `CN(C1CCOCC1)C1Cc2ccc(NC(=O)/C=C3\CCCOc4cc(C(F)(F)F)ccc43)cc2NC1=O` (centres unmarked) [EXAMPLE 57, (E)-2-(8-trifluoromethyl-3,4-dihydrobenzo[b]oxepin-5(2H)-ylidene)-N-(3-(N-methyl-N-(4-tetrahydropyranyl)amino)-3,4-dihydro-2(1H)-quinolinon-7-yl)acetamide], “B (A2 value of 100 nM or more)”.
The same measure, in the same setting: for `CC1(C)Oc2ccc(NC(=O)/C=C3\CCCOc4cc(C(F)(F)F)ccc43)cc2NC1=O` [Example 1, (E)-2-(8-trifluoromethyl-3,4-dihydrobenzo[b]oxepin-5(2H)-ylidene)-N-(2,2-dimethyl-4H-benzo[1,4]oxazin-3-on-6-yl)acetamide] the value was “A (A2 value of less than 100 nM)”; for `CC1Oc2ccc(NC(=O)/C=C3\CCCOc4cc(C(F)(F)F)ccc43)cc2NC1=O` (centres unmarked) [Example 2, (E)-2-(8-trifluoromethyl-3,4-dihydrobenzo[b]oxepin-5(2H)-ylidene)-N-(2-methyl-4H-benzo[1,4]oxazin-3-on-6-yl)acetamide], “A (A2 value of less than 100 nM)”.
Take `O=C(/C=C1\CCCOc2cc(C(F)(F)F)ccc21)Nc1ccc2c(c1)NC(=O)C(CCO)O2` (centres unmarked) [Example 3, (E)-2-(8-trifluoromethyl-3,4-dihydrobenzo[b]oxepin-5(2H)-ylidene)-N-(2-(2-hydroxyethyl)-4H-benzo[1,4]oxazin-3-on-6-yl)acetamide]: the A2 value result is given as “A (A2 value of less than 100 nM)”.
The same measure, in the same setting: for `O=C(/C=C1\CCCOc2cc(C(F)(F)F)ccc21)Nc1ccc2c(c1)NC(=O)CS2` [Example 4, (E)-2-(8-trifluoromethyl-3,4-dihydrobenzo[b]oxepin-5(2H)-ylidene)-N-(2H-benzo[1,4]thiazin-3(4H)-on-6-yl)acetamide] the value was “A (A2 value of less than 100 nM)”.
On the same count and under the same terms, with `O=C(/C=C1\CCCOc2cc(C(F)(F)F)ccc21)Nc1ccc2c(c1)NC(=O)C[S+]2[O-]` (centres unmarked) [Example 5, (E)-2-(B-trifluoromethyl-3,4-dihydrobenzo[b]oxepin-5(2H)-ylidene)-N-(1-oxo-2H-benzo[1,4]thiazin-3(4H)-on-6-yl)acetamide] the entry was “B (A2 value of 100 nM or more)”; with `O=C(/C=C1\CCCOc2cc(C(F)(F)F)ccc21)Nc1ccc2c(c1)NC(=O)CN2` [Example 7, (E)-2-(8-trifluoromethyl-3,4-dihydrobenzo[b]oxepin-5(2H)-ylidene)-N-(3,4-dihydro-2(1H)-quinoxalinon-7-yl)acetamide], “A (A2 value of less than 100 nM)”.
Still for that read-out and setting: with `O=C(/C=C1\CCCOc2cc(C(F)(F)F)ccc21)Nc1ccc2cc(N3CCOCC3)c(=O)[nH]c2c1` [Example 58, (E)-2-(8-trifluoromethyl-3,4-dihydrobenzo[b]oxepin-5(2H)-ylidene)-N-(3-(4-morpholinyl)-2(1H)-quinolinon-7-yl)acetamide] the entry was “A (A2 value of less than 100 nM)”.
`O=C(/C=C1\CCCOc2cc(C(F)(F)F)ccc21)Nc1ccc2c(c1)NS(=O)(=O)CC2` [Example 59, (E)-2-(8-trifluoromethyl-3,4-dihydrobenzo[b]oxepin-5(2H)-ylidene)-N-(2,2-dioxo-3,4-dihydro-(1H)-2,1-benzothiazin-7-yl)acetamide]: the A2 value entry was “A (A2 value of less than 100 nM)”.
`O=C(/C=C1\CCCOc2cc(C(F)(F)F)ccc21)Nc1cccc2c1CCC(=O)N2` [compound 18, (E)-2-(8-trifluoromethyl-3,4-dihydrobenzo[b]oxepin-5(2H)-ylidene)-N-(3,4-dihydro-2(1H)-quinolinon-5-yl)acetamide]: the A2 value entry is listed as “A (A2 value of less than 100 nM)”.

Test system in a further data set: not listed separately
As to the kind of experiment: Effects on rectal temperature (8-1), oral administration to rats. The class given is in vivo, rat. Particulars: oral single doses of 3, 10 and 30 mg/kg; 30, 60 and 120 minutes; maximum absolute difference vs vehicle. The protocol:
(8-1) Effects on Rectal Temperature
A test compound was orally administered to rats at single doses of 3, 10 and 30 mg/kg. Then rectal temperature was measured 30, 60 and 120 minutes after administration.
Differences of the mean value between a group treated with test substance and a vehicle-treated group were calculated at all measuring points and, based on the maximum absolute value of differences, changes in rectal temperature were divided into the following three categories:
−: the maximum value was less than 0.5 degree Celsius +: the maximum value was more than 0.5 degree but less than 1.0 degree Celsius ++: the maximum value was more than 1.0 degree Celsius
`CC1(C)C/C(=C\C(=O)Nc2ccc3c(c2)NC(=O)C(N2CCOCC2)C3)c2ccc(C(F)(F)F)cc2O1` (single isomer, unassigned) [Example 213, (E)-2-(7-trifluoromethyl-2,2-dimethylchroman-4-ylidene)-N-(3-(4-morpholinyl)-3,4-dihydro-2(1H)-quinolinon-7-yl)acetamide]: the “Change in rectal temperature in rats” value was “− (the maximum value was less than 0.5 degree Celsius)”.

(Values after patent publication US20100016285A1, “HETEROCYCLIDENE-N-(ARYL) ACETAMIDE DERIVATIVE” (MOCHIDA PHARMACEUTICAL CO., LTD., priority 2007, published 2010).)
